Measurements from patent publication US4668664A (L'Oreal, priority 1985, dated 1987).
Values after ≈ are worked out from the molar mass of the structure shown.

Legend:
[1] = system: propionibacterium acnes P 37 strain; experiment: Minimal Inhibiting Concentration (MIC) by the dilution method, P 37 strain; assay type: cell-based; conditions: Cutibacterium acnes, P37STRAIN
Description: (§1) This method is described and employed by G. A. Denys et al, Antimicrobial Agents and Chemotherapy (1983), 23, 335-337 and J. J. Leyden et al, J. Am. Acad. Dermatol. (1983) 8 (1) 41-5, and utilizes as the strain of propionibacterium acnes, the P 37 strain furnished by Cunliffe and Holland.

P 37 = experiment: IC 50 study (inhibiting concentration at 50%), P 37; assay type: cell-based, propionibacterium acnes; conditions: Cutibacterium acnes, 50% survivors at constant culture time, read-out: IC 50 (inhibiting concentration at 50%; column head printed MIC)
P 37 E⊕ = experiment: IC 50 study (inhibiting concentration at 50%), P 37 E⊕; assay type: cell-based, propionibacterium acnes; conditions: Cutibacterium acnes, read-out: IC 50 (inhibiting concentration at 50%; column head printed MIC)
Description: (§2) (2) at 1 cm beyond the periphery of the inhibition zone the strains denominated P 37 E⊕ are retained.

P 37 E⊕ (sensitive) = experiment: Minimal Inhibiting Concentration (MIC) by the dilution method, sensitive strain P 37 E⊕; assay type: cell-based, propionibacterium acnes; conditions: Cutibacterium acnes
Description: as §1
(§3) After display of a standardized inoculum (DO=1.8 to 450 nm) on gelose medium (RCM+furazolidone), in a Petri dish, a disc of 9 mm in diameter is deposited in its center.
The two types of colonies are then retained by pulling away from the gelose medium (sterilized platinum loop):
as §2

P 37 E⊖ = experiment: IC 50 study (inhibiting concentration at 50%), P 37 E⊖; assay type: cell-based, propionibacterium acnes; conditions: Cutibacterium acnes, read-out: IC 50 (inhibiting concentration at 50%; column head printed MIC)
P 37 strain = experiment: Growth inhibition zone, disc on gelose medium; assay type: cell-based, propionibacterium acnes; conditions: Cutibacterium acnes, 144 h; read-out: growth inhibition zone, total diameter
Description: as §3
(§4) After 6 days at 36° C. in an anaerobic medium (GAS-PAK system, B.B.L.) a growth inhibition zone of the strain is clearly visible (total diameter=42 mm), the great majority of the colonies being situated at the periphery of the inhibition zone.

P 37 E⊖ (resistant) = experiment: Minimal Inhibiting Concentration (MIC) by the dilution method, resistant strain P 37 E⊖; assay type: cell-based, propionibacterium acnes; conditions: for MIC: Cutibacterium acnes, read-out: Minimal Inhibiting Concentration (MIC), P 37 E⊖ (resistant), dilution method; for relative activity on strain P 37 E⊖: in words, vs reference fatty esters / erythromycin
Description: as §1, §3, §4
On the other hand, at its interior a few colonies clearly appear.
The two types of colonies are then retained by pulling away from the gelose medium (sterilized platinum loop): […]

Row | Compound | MIC (P 37 E⊕ (sensitive)) | MIC (P 37 E⊖ (resistant)) | further results
1 | CC[C@H]1OC(=O)[C@H](C)[C@@H](O[C@H]2C[C@@](C)(OC)[C@@H](O)[C@H](C)O2)[C@H](C)[C@@H](O[C@@H]2O[C@H](C)C[C@H](N(C)C)[C@H]2O)[C@](C)(O)C[C@@H](C)C(=O)[C@H](C)[C@@H](O)[C@]1(C)O [Erythromycin, erythromycin A] | 0.78 µg/mL (≈ 1.06 µM) | > 50 µg/mL | MIC [1]: 0.78 µg/mL (≈ 1.06 µM); IC50 (P 37): 50 µg/mL (≈ 68.1 µM); IC50 (P 37 E⊕): 5 µg/mL (≈ 6.81 µM); IC50 (P 37 E⊖): ~100 µg/mL (≈ 136 µM); zone of inhibition at 50 µg/disc (P 37 strain): 42 mm; Minimal Inhibiting Concentration (MIC) (P 37 E⊖ (resistant); P 37 E⊖ (resistant), dilution method): 50 µg/mL
2 | CCCCC/C=C\C/C=C\C/C=C\C/C=C\CCCC(=O)O[C@H]1[C@H](O[C@@H]2[C@@H](C)[C@H](O[C@H]3C[C@@](C)(OC)[C@@H](O)[C@H](C)O3)[C@@H](C)C(=O)O[C@H](CC)[C@@](C)(O)[C@H](O)[C@@H](C)C(=O)[C@H](C)C[C@@]2(C)O)O[C@H](C)C[C@@H]1N(C)C [O--arachidonoyl-2', O-arachidonoyl-2' erythromycin A] | 6.25 µg/mL (≈ 6.13 µM) | > 50 µg/mL | 
3 | CCCCC/C=C/C/C=C/CCCCCCCC(=O)O[C@H]1[C@H](O[C@@H]2[C@@H](C)[C@H](O[C@H]3C[C@@](C)(OC)[C@@H](O)[C@H](C)O3)[C@@H](C)C(=O)O[C@H](CC)[C@@](C)(O)[C@H](O)[C@@H](C)C(=O)[C@H](C)C[C@@]2(C)O)O[C@H](C)C[C@@H]1N(C)C [O--linoelaidoyl-2', O-linoelaidoyl-2' erythromycin A] | 25 µg/mL (≈ 25.1 µM) | 100 µg/mL (≈ 100 µM) | relative activity on strain P 37 E⊖ (P 37 E⊖ (resistant)): less active
4 | CCCCC/C=C/C/C=C/CCCCCCCC(=O)O[C@H]1[C@H](C)O[C@@H](O[C@H]2[C@H](C)[C@@H](O[C@@H]3O[C@H](C)C[C@H](N(C)C)[C@H]3O)[C@](C)(O)C[C@@H](C)C(=O)[C@H](C)[C@@H](O)[C@](C)(O)[C@@H](CC)OC(=O)[C@@H]2C)C[C@@]1(C)OC [O--linoelaidoyl-4", O-linoelaidoyl-4" erythromycin A] | 25 µg/mL (≈ 25.1 µM) | 100 µg/mL (≈ 100 µM) | relative activity on strain P 37 E⊖ (P 37 E⊖ (resistant)): less active
5 | CCCCC/C=C\C/C=C\CCCCCCCC(=O)O[C@H]1[C@H](O[C@@H]2[C@@H](C)[C@H](O[C@H]3C[C@@](C)(OC)[C@@H](O)[C@H](C)O3)[C@@H](C)C(=O)O[C@H](CC)[C@@](C)(O)[C@H](O)[C@@H](C)C(=O)[C@H](C)C[C@@]2(C)O)O[C@H](C)C[C@@H]1N(C)C [O--linolenoyl-2', O-linoleoyl-2' erythromycin A] | 4 µg/mL (≈ 4.01 µM) | 16 µg/mL (≈ 16.1 µM) | 
6 | CCCCC/C=C\C/C=C\CCCCCCCC(=O)O[C@H]1[C@H](C)O[C@@H](O[C@H]2[C@H](C)[C@@H](O[C@@H]3O[C@H](C)C[C@H](N(C)C)[C@H]3O)[C@](C)(O)C[C@@H](C)C(=O)[C@H](C)[C@@H](O)[C@](C)(O)[C@@H](CC)OC(=O)[C@@H]2C)C[C@@]1(C)OC [O--linoleoyl-4", O-linoleoyl-4" erythromycin A] | 3.5 µg/mL (≈ 3.51 µM) | 28 µg/mL (≈ 28.1 µM) | 
7 | CCCCCCCC/C=C\CCCCCCCC(=O)O[C@H]1[C@H](O[C@@H]2[C@@H](C)[C@H](O[C@H]3C[C@@](C)(OC)[C@@H](O)[C@H](C)O3)[C@@H](C)C(=O)O[C@H](CC)[C@@](C)(O)[C@H](O)[C@@H](C)C(=O)[C@H](C)C[C@@]2(C)O)O[C@H](C)C[C@@H]1N(C)C [O--oleoyl-2'] | 50 µg/mL (≈ 50.1 µM) | 100 µg/mL (≈ 100 µM) | 
8 | CCCCCCCCCCCCCCCCCC(=O)O[C@H]1[C@H](O[C@@H]2[C@@H](C)[C@H](O[C@H]3C[C@@](C)(OC)[C@@H](O)[C@H](C)O3)[C@@H](C)C(=O)O[C@H](CC)[C@@](C)(O)[C@H](O)[C@@H](C)C(=O)[C@H](C)C[C@@]2(C)O)O[C@H](C)C[C@@H]1N(C)C [O--stearoyl-2'] | < 1.56 µg/mL | > 50 µg/mL | 
9 | CC/C=C\C/C=C\C/C=C\CCCCCCCC(=O)O[C@H]1[C@H](C)O[C@@H](O[C@H]2[C@H](C)[C@@H](O[C@@H]3O[C@H](C)C[C@H](N(C)C)[C@H]3O)[C@](C)(O)C[C@@H](C)C(=O)[C@H](C)[C@@H](O)[C@](C)(O)[C@@H](CC)OC(=O)[C@@H]2C)C[C@@]1(C)OC [O--α-linolenoyl-4", O-α-linolenoyl-4" erythromycin A] | 4.5 µg/mL (≈ 4.53 µM) | 37 µg/mL (≈ 37.2 µM) | 
